Assay results taken from PMC12196476, “New Nitrogen-, Oxygen-, and Sulfur-Containing Heterocyclic Compounds as Anti-Colon Cancer Agents: Synthesis, Multitargeted Evaluations, Molecular Docking Simulations and ADMET Predictions” (Pharmaceuticals, 2025).

Assays:
[1] = DPPH radical scavenging assay; conditions: three independent experiments; read-out: Mean IC50 (mM) for initial DPPH radicals ± SD
Method: The antioxidant activities of the studied compounds were assessed using the 1,1-diphenyl-2-picrylhydrazyl (DPPH) radical scavenging method as detailed by Bersuder et al.. The results were expressed as IC50 (mM)—the concentration of the test compound required to neutralize 50% of DPPH radicals.
The antioxidant efficiencies of target compounds were determined using the 1,1-diphenyl-2-picrylhydrazyl (DPPH) radical scavenging method as detailed by Bersuder et al.. […]
S3.2. Evaluation of Biological Activities.
S3.2.1. In vitro DPPH radical scavenging assay.
The antioxidant efficiencies of compounds—3a−e, 8, 9a−c, 13, 14, 17, 18a−h, 20, 22, 23, and 25—were
determined using the 1,1-diphenyl-2-picrylhydrazyl (DPPH) radical scavenging method as
detailed by Bersuder et al.. Fundamentally, the purple color of the stabilized DPPH radical
fades in the presence of an antioxidant, thus, the change of absorbance can be followed
spectrophotometrically at 519 nm. In the assay, equal volumes (0.5 mL) of DPPH ethanolic solution
and each compound (0-2 mg/mL in DMSO) or butylated hydroxytoluene (BHT) as the reference
were mixed well by shaking. The negative control consisted of the same amount of DMSO and
DPPH solution. After, incubation all mixtures at room temperature in the dark for one hour, the
absorbance of the residual DPPH radicals was measured at 519 nm using the UV‐vis
spectrophotometer. The DPPH radical scavenging activity of each compound (%) was calculated
Scavenging activity = (1 − Acompound/AControl) * 100, where Acompound and Acontrol the absorbance values
of each tested compound (or BHT) and the negative control, respectively. The half maximal
inhibitory concentration (IC50) for each compound in mg/mL was deduced by graphing the dose-
response curve relating the scavenging activity (%) to the compound concentration. Data points
represent the mean ± standard deviation (SD) of three independent determinations.

[2] = test system: LoVo colon carcinoma cells; assay: Cell viability, LDH release assay, LoVo; conditions: Homo sapiens, LoVo, 48 h; for viability at 100 µg/mL: read-out: Mean % of viable cells ± SD, LoVo, 100 µg/mL, 48 h, LDH release assay; for IC50: read-out: Mean IC50 Values in µM ± SD, LoVo cells
Method: (§1) The studied compounds were also screened for their cytotoxic effects on HCT-116 and LoVo colon carcinoma cells, as well as normal HUVECs, using the standard LDH assay at a concentration of 100 µg/mL.
(§2) The antiproliferative activities of the newly synthesized compounds 3a–e, 8, 9a–c, 13, 14, 17, 18a–h, 20, 22, 23 and 25 were examined on human colon HCT-116 and LoVo cell lines as well as HUVEC (American Type Culture Collection, Manassas, VA, USA). […]
(§3) S3.2.4. Cell culture and viability assay.
(§4) The cytotoxic activities of the newly synthesized compounds (3a-e, 8, 9a-c, 13, 14, 17, 18a-h, 20, 22,
(§5) 23, and 25) were examined on human colon cancer cell lines HCT-116 and Lovo (American Type
(§6) Culture Collection, USA). Various concentrations (50, 100, 200, and 400 μg/mL) of test compounds
(§7) were prepared in Dulbecco’s Modified Eagles Medium (PAN-Biotech, Barcelona, Spain),

[3] = test system: HCT-116 colon carcinoma cells; assay: Cell viability, LDH release assay, HCT-116; conditions: Homo sapiens, HCT-116, 48 h; for viability at 100 µg/mL: read-out: Mean % of viable cells ± SD, HCT-116, 100 µg/mL, 48 h, LDH release assay; for IC50: read-out: Mean IC50 Values in µM ± SD, HCT-116 cells
Method: as §1, §2, §3, §4, §5, §6, §7

PDK-1 = PDK-1 (Homo sapiens, UniProt Q15118); assay: In vitro PDK-1 inhibition assay (Kinase-Glo luminescent kinase kit); type: biochemical; conditions: for inhibition at 100 µg/mL: three replicates, read-out: Mean Inhibition Percent ± SD, PDK-1; for IC50: three independent experiments, read-out: Mean IC50 µM ± SD, PDK-1
Method: Principally, the PDK-1 inhibitory activities were evaluated using the non-radioactive Kinase-Glo™ Luminescent Kinase Kit (Promega Corporation, Madison, WI, USA) following the instructions of the manufacturer.
S3.2.2. In vitro PDK-1 inhibition assay.
The PDK-1 inhibitory activities of the test compounds were evaluated using the non-radioactive
Kinase-Glo™ Luminescent Kinase kit (Promega Corporation, Madison, WI, USA), following the
manufacturer’s protocol. Briefly, 5 μL of assay buffer—containing 10 × 250 mM Tris-HCl, 50 mM
MgCl2, 5 mM ethyleneglycol-bis(β-aminoethylether)-N,N,N′,N′-tetraacetic acid (EGTA), 10 mM
ethylenedi- aminetetraacetic acid (EDTA), and 10 mM dithiothreitol (DTT)—was added to each
well of a 96-well plate, along with 25 μL of distilled water. Subsequently, 5 μL of each test
compound at various concentrations (50, 100, 200 and 300 μg/mL in 1% DMSO) was added to the
respective wells, except for the two control wells, which received 5 μL of either PBS buffer or 1%
DMSO. Then, 5 μL of pyruvate dehydrogenase E1 (PDH E1) protein (10 μM) and 5 μL of ATP
(10 μM) were added to each well. To initiate phosphorylation, 5 μL of PDK-1 (20 μM) in protein
buffer (1 mM MgCl2, 2000 mM KCl, 40 mM K3PO4) was added to all the wells except the control
wells, which received 5 μL of protein buffer instead. The plate was then mixed thoroughly and
incubated at 37 °C for 30 minutes. After incubation, 50 μL of kinase-Glo® reagent was added to each
well, followed by a 10-minute incubation at room temperature with gentle shaking to stabilize the
luminescent signal. Luminescence was then measured using a microplate reader.
The IC50 value—defined as the concentration of a compound required to reduce luminescence by
50%, compared to untreated control wells—was determined for each compound from the
corresponding dose–response curve generated by plotting PDK-1 inhibition (%) versus compound
concentration. Sodium dichloroacetate (SDA, 1000 μM) was used as a reference PDK-1inhibitor. […]

[4] = Cell viability, LDH release assay, normal HUVECs; conditions: human, normal HUVECs, Mean % of viable cells ± SD, HUVEC
Method: as §1, §2
medium served used as negative and positive controls, respectively. Percentages of viable cells […]
were calculated based on relative optical density (OD) values (at 550 nm) for compound-treated […]
wells (final concentration of 100 μg/mL), compared to the negative control, and expressed as mean value (%) ± SD from two replicates. Graphing dose-response curves representing the compound […]
concentration versus the percentages of viable cells was also conducted to deduce the half - […]
Additionally, the safety profiles of the studied compounds were assessed against normal cells […]
(HUVECs) at final concentration of 100 μg/mL . HUVECs were grown in Dulbecco’s Modified Eagle’s Medium supplemented with 10% FBS, 2 mM glutamine (Sigma Aldrich), 100 units/mL penicillin and […] streptomycin (Life Technologies; Paisley, UK). […]

[5] = target: recombinant human LDHA protein (Homo sapiens, UniProt P00338); assay: In vitro LDHA inhibitory assay (NADH consumption); type: biochemical; conditions: for inhibition at 100 µg/mL: three replicates, read-out: Mean Inhibition Percent ± SD, LDHA; for IC50: three independent experiments, read-out: Mean IC50 µM ± SD, LDHA
Source text: The LDHA inhibitory efficiencies were investigated on Spectramax M2 spectrofluorometer via measuring the amounts of the consumed NADH^40 using an NAD^+/NADH quantification kit. […]
S3.2.3. In vitro LDHA inhibitory assay.
The LDHA inhibitory activity of the test compounds was investigated using Spectramax M2
spectrofluorometer by measuring the amounts of the consumed NADH [42] employing
NAD+/NADH quantification kit. Briefly, the assay medium containing various concentrations of
each test compound (50, 100, 200 and 300 μg/mL) was incubated in assay medium composed of 20
mM of HEPES-K+ buffer (pH 7.2), 20 μM of NADH, 2 mM of pyruvate and 10 ng of purified
recombinant human LDHA protein for 10 min utes. The activity of LDHA would result in reduction
of pyruvate into lactate with concomitant oxidation of NADH to NAD +. Since NADH (reduced
LDHA, could be inversely quantified by monitoring the change in the intensity of the fluorescence
at 340 nm over a 10-minute period. The rate of the fluorescence change (slope) in treated samples
was compared to that obtained from negative control experiment (100 % enzymatic activity) to
determine the percentage of inhibition. The IC50 value—defined as the compound concentration
required to reduce the luminescence by 50%, compared to untreated control wells—was
determined for each compound from the corresponding dose–response curve generated by
plotting LDHA inhibition (%) against compound concentration.
was used as the reference LDHA inhibitor. […]

Chain of PDK-1 (Q15118 29-436): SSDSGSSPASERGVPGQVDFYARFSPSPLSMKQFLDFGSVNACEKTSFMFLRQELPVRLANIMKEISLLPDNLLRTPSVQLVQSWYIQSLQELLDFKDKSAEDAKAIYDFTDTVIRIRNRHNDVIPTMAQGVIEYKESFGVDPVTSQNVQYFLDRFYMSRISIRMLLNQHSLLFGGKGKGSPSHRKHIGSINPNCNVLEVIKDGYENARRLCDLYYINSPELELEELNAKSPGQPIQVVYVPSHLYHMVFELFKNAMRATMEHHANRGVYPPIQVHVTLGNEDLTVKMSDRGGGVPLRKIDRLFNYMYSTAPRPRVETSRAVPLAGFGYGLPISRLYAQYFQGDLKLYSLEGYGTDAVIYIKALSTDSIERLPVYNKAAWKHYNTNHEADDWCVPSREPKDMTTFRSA

SMILES: CCOC(=O)c1sc(/N=C/c2c(O)ccc3ccccc23)nc1C [Compound 9c, Ethyl(E)-2-(((2-hydroxynaphthalen-1-yl)methylene)amino)-4-methylthiazole-5-carboxylate]
- IC50 [1]: 0.881 ± 0.041 mM
- viability at 100 µg/mL [2]: 60.3 ± 2.12%
- viability at 100 µg/mL [3]: 64.3 ± 3.06%
- inhibition at 100 µg/mL (PDK-1): 48.8 ± 1.77%
- viability at 48 h, 100 µg/mL [4]: 80.7 ± 3.22%
- inhibition at 100 µg/mL [5]: 67.3 ± 3.32%

SMILES: COc1cc2nc(C)n(-c3ccc(-c4nc5ccccc5s4)cc3)c(=O)c2cc1OC [Compound 13, 3-(4-(Benzo[d]thiazol-2-yl)phenyl)-6,7-dimethoxy-2-methylquinazolin-4(3H)-one]
- IC50 [1]: 1.82 ± 0.188 mM
- viability at 100 µg/mL [2]: 86.5 ± 2.12%
- viability at 100 µg/mL [3]: 71.5 ± 2.12%
- inhibition at 100 µg/mL (PDK-1): 40.5 ± 2.76%
- viability at 48 h, 100 µg/mL [4]: 84 ± 2.33%
- inhibition at 100 µg/mL [5]: 40.2 ± 3.18%

SMILES: COc1cc2nc(C)n(C3CCCCC3)c(=O)c2cc1OC [Compound 14, 3-Cyclohexyl-6,7-dimethoxy-2-methylquinazolin-4(3H)-one]
- IC50 [1]: 0.327 ± 0.007 mM
- viability at 100 µg/mL [2]: 13 ± 1.14%
- IC50 [2]: 292.1 ± 1.17 µM
- viability at 100 µg/mL [3]: 12.5 ± 0.71%
- IC50 [3]: 293 ± 5.38 µM
- inhibition at 100 µg/mL (PDK-1): 80.5 ± 4.95%
- IC50 (PDK-1): 192 ± 5.57 µM
- viability at 48 h, 100 µg/mL [4]: 95 ± 1.82%
- inhibition at 100 µg/mL [5]: 37 ± 2.83%
- IC50 [5]: 378 ± 3.98 µM

SMILES: CCOC(=O)Nn1c(C)nc2cc(OC)c(OC)cc2c1=O [Compound 17, Ethyl (6,7-Dimethoxy-2-methyl-4-oxoquinazolin-3(4H)-yl)carbamate]
- IC50 [1]: 0.307 ± 0.01 mM
- viability at 100 µg/mL [2]: 10.5 ± 0.71%
- IC50 [2]: 277 ± 0.21 µM
- viability at 100 µg/mL [3]: 20.5 ± 2.12%
- IC50 [3]: 302 ± 10.5 µM
- inhibition at 100 µg/mL (PDK-1): 91 ± 2.83%
- IC50 (PDK-1): 169 ± 1.81 µM
- viability at 48 h, 100 µg/mL [4]: 96 ± 2.56%
- inhibition at 100 µg/mL [5]: 5.75 ± 0.35%
- IC50 [5]: 1060 ± 7.64 µM

SMILES: COc1cc(OC)c(/C=N/n2c(C)nc3cc(OC)c(OC)cc3c2=O)c(OC)c1 [Compound 18a, (E)-6,7-Dimethoxy-2-methyl-3-((2,4,6-trimethoxybenzylidene)amino)quinazolin-4(3H)-one]
- IC50 [1]: 1.38 ± 0.039 mM
- viability at 100 µg/mL [2]: 48.3 ± 2.83%
- IC50 [2]: 132 ± 7.4 µM
- viability at 100 µg/mL [3]: 40.7 ± 4.16%
- IC50 [3]: 210 ± 2.42 µM
- inhibition at 100 µg/mL (PDK-1): 66.7 ± 1.53%
- viability at 48 h, 100 µg/mL [4]: 85 ± 1%
- inhibition at 100 µg/mL [5]: 16.6 ± 0.78%

SMILES: COc1cc2nc(C)n(/N=C/c3ccc(C(F)(F)F)cc3)c(=O)c2cc1OC [Compound 18c, (E)-6,7-Dimethoxy-2-methyl-3-((4-(trifluoromethyl)benzylidene)amino)quinazolin-4(3H)-one]
- IC50 [1]: 0.606 ± 0.015 mM
- viability at 100 µg/mL [2]: 63 ± 3%
- viability at 100 µg/mL [3]: 71.3 ± 6.51%
- inhibition at 100 µg/mL (PDK-1): 44.7 ± 1.53%
- viability at 48 h, 100 µg/mL [4]: 91.3 ± 2.08%
- inhibition at 100 µg/mL [5]: 21.1 ± 0.99%

SMILES: COc1cc(/C=N/n2c(C)nc3cc(OC)c(OC)cc3c2=O)ccc1O [Compound 18d, (E)-3-((4-Hydroxy-3-methoxybenzylidene)amino)-6,7-dimethoxy-2-methylquinazoli-N-4(3H)-one]
- IC50 [1]: 0.658 ± 0.016 mM
- viability at 100 µg/mL [2]: 30.7 ± 4.24%
- IC50 [2]: 202 ± 7.82 µM
- viability at 100 µg/mL [3]: 38 ± 2%
- IC50 [3]: 238 ± 8.12 µM
- inhibition at 100 µg/mL (PDK-1): 65 ± 3.46%
- viability at 48 h, 100 µg/mL [4]: 86.3 ± 1.53%
- inhibition at 100 µg/mL [5]: 12.2 ± 1.98%

SMILES: COc1cc(OC)c(/C=N/n2c(C)nc3ccc(F)cc3c2=O)c(OC)c1 [Compound 18e, (E)-6-Fluoro-2-methyl-3-((2,4,6-trimethoxybenzylidene)amino)quinazolin-4(3H)-one]
- IC50 [1]: 0.781 ± 0.046 mM
- viability at 100 µg/mL [2]: 88.7 ± 3.21%
- viability at 100 µg/mL [3]: 87.3 ± 2.08%
- inhibition at 100 µg/mL (PDK-1): 30 ± 1%
- viability at 48 h, 100 µg/mL [4]: 83 ± 3.61%
- inhibition at 100 µg/mL [5]: 36.8 ± 1.91%
